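Five compound concentrations were applied to cells in 96-well plates for 48 hours; endpoints were derived by simple linear interpolation of the resulting dose-response curve. GI50 = concentration required for 50% inhibition of growth.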 Active and inactive are the calls of the source. Rule as the data show it: active = GI50 up to about 1.1 µM and inactive = higher.
Columns and labels:
Test in all cases: growth of human tumour cells (NCI), 48 h
SF-268 = tested on: SF-268
OVCAR-5 = tested on: OVCAR-5
MDA-N = tested on: MDA-N
OVCAR-3 = tested on: OVCAR-3
NCI-H460 = tested on: NCI-H460
Malme-3M = tested on: Malme-3M
HOP-62 = tested on: HOP-62
UACC-62 = tested on: UACC-62
KM12 = tested on: KM12
T47D = tested on: T47D
HCC 2998 = tested on: HCC 2998
HOP-92 = tested on: HOP-92
SK-MEL-28 = tested on: SK-MEL-28
A549 = tested on: A549
SK-MEL-5 = tested on: SK-MEL-5
OVCAR-8 = tested on: OVCAR-8
M14 = tested on: M14
IGROV-1 = tested on: IGROV-1
UACC-257 = tested on: UACC-257

Measured: GI50

CC(C)(C)OC(=O)NC(Cc1ccc(OC(C)(C)C)cc1)C(=O)N[C@H]1CCC[C@H]1C(=O)NC(Cc1ccccc1)C(=O)N1CCCC1C(N)=O (stereo partly drawn)
inactive: SF-268 > 100 µM | OVCAR-5 > 100 µM | MDA-N > 100 µM | OVCAR-3 > 100 µM | NCI-H460 > 100 µM | Malme-3M > 100 µM | HOP-62 > 100 µM | UACC-62 > 100 µM | KM12 > 100 µM | T47D > 100 µM | HCC 2998 > 100 µM | HOP-92 > 100 µM | SK-MEL-28 > 100 µM | A549 > 100 µM | SK-MEL-5 > 100 µM | OVCAR-8 > 100 µM | M14 > 100 µM | IGROV-1 > 100 µM | UACC-257 > 100 µM

c1ccc2c(c1)Cc1c(Cc3csc4ccccc34)ccc3cccc-2c13
inactive: SF-268 > 100 µM | OVCAR-5 > 100 µM | OVCAR-3 > 100 µM | NCI-H460 > 100 µM | Malme-3M > 100 µM | HOP-62 > 100 µM | UACC-62 > 100 µM | KM12 > 100 µM | HCC 2998 > 100 µM | HOP-92 > 100 µM | SK-MEL-28 > 100 µM | A549 > 100 µM | SK-MEL-5 > 100 µM | OVCAR-8 > 100 µM | M14 > 100 µM | IGROV-1 > 100 µM | UACC-257 > 100 µM

Cc1ccccc1C1CC(c2ccccc2)=NO1 (stereo not drawn)
inactive: SF-268 > 100 µM | OVCAR-5 > 100 µM | OVCAR-3 > 100 µM | NCI-H460 > 100 µM | Malme-3M > 100 µM | HOP-62 > 100 µM | UACC-62 > 100 µM | KM12 > 100 µM | HCC 2998 > 100 µM | HOP-92 > 100 µM | SK-MEL-28 > 100 µM | A549 > 100 µM | SK-MEL-5 > 100 µM | OVCAR-8 > 100 µM | M14 > 100 µM | IGROV-1 > 100 µM | UACC-257 > 100 µM

O=C1c2ccccc2-c2nnc3c(c21)-c1ccccc1C3
inactive: SF-268 > 100 µM | OVCAR-5 > 100 µM | MDA-N > 100 µM | NCI-H460 29.2 µM | Malme-3M > 100 µM | UACC-62 37.6 µM | KM12 > 100 µM | T47D > 100 µM | HOP-92 > 100 µM | A549 62.7 µM | SK-MEL-5 66.8 µM | OVCAR-8 44.2 µM | M14 > 100 µM | UACC-257 > 100 µM

Cc1ccc(S(=O)(=O)NNC(=S)Nc2cccc3ccccc23)cc1
inactive: SF-268 70.6 µM | OVCAR-5 89.3 µM | MDA-N 55.3 µM | NCI-H460 > 100 µM | Malme-3M 33.3 µM | HOP-62 59.3 µM | UACC-62 32.1 µM | KM12 23.4 µM | T47D 39.5 µM | HCC 2998 53.8 µM | HOP-92 30.6 µM | SK-MEL-28 54.1 µM | A549 49.4 µM | SK-MEL-5 17.8 µM | OVCAR-8 37.5 µM | M14 43.2 µM | IGROV-1 61.5 µM | UACC-257 13.8 µM

Cc1cccc(C)c1NC(=O)CCc1nnc2s/c(=C\c3ccc(Cl)cc3)c(=O)n12
inactive: SF-268 > 100 µM | OVCAR-5 > 100 µM | OVCAR-3 > 100 µM | NCI-H460 > 100 µM | Malme-3M > 100 µM | HOP-62 22 µM | UACC-62 > 100 µM | KM12 > 100 µM | HCC 2998 > 100 µM | HOP-92 > 100 µM | SK-MEL-28 > 100 µM | A549 > 100 µM | SK-MEL-5 > 100 µM | OVCAR-8 > 100 µM | M14 > 100 µM | IGROV-1 72.1 µM | UACC-257 > 100 µM

NC(CCCCNCc1ccccc1O)C(=O)O (stereo not drawn)
inactive: SF-268 > 100 µM | OVCAR-5 > 100 µM | OVCAR-3 > 100 µM | NCI-H460 > 100 µM | Malme-3M > 100 µM | HOP-62 > 100 µM | UACC-62 > 100 µM | KM12 > 100 µM | HCC 2998 > 100 µM | HOP-92 > 100 µM | SK-MEL-28 > 100 µM | A549 > 100 µM | SK-MEL-5 > 100 µM | OVCAR-8 > 100 µM | M14 > 100 µM | IGROV-1 > 100 µM | UACC-257 > 100 µM

O=CN1CCN(C=S)CC1
inactive: SF-268 > 100 µM | OVCAR-5 > 100 µM | OVCAR-3 > 100 µM | NCI-H460 > 100 µM | Malme-3M > 100 µM | HOP-62 > 100 µM | UACC-62 > 100 µM | KM12 > 100 µM | HCC 2998 > 100 µM | HOP-92 > 100 µM | SK-MEL-28 > 100 µM | A549 > 100 µM | SK-MEL-5 > 100 µM | OVCAR-8 > 100 µM | M14 > 100 µM | IGROV-1 > 100 µM | UACC-257 > 100 µM

Cc1ccc2c(c1)SC(c1cc3c(cc1Br)OCO3)S2 (stereo not drawn)
inactive: SF-268 > 31.6 µM | OVCAR-5 > 31.6 µM | OVCAR-3 > 31.6 µM | NCI-H460 > 31.6 µM | Malme-3M > 31.6 µM | HOP-62 > 31.6 µM | UACC-62 > 31.6 µM | KM12 26.7 µM | HCC 2998 31 µM | HOP-92 6.22 µM | SK-MEL-28 > 31.6 µM | A549 > 31.6 µM | SK-MEL-5 > 31.6 µM | OVCAR-8 > 31.6 µM | M14 > 31.6 µM | IGROV-1 > 31.6 µM | UACC-257 > 31.6 µM

COC(=O)[C@@H]1C(=O)O[C@@H](c2cc(OC)c(OC)cc2OC)[C@@H]1C(=O)OC.COC(=O)[C@H]1C(=O)O[C@@H](c2cc(OC)c(OC)cc2OC)[C@@H]1C(=O)OC
inactive: SF-268 > 100 µM | OVCAR-5 > 100 µM | OVCAR-3 > 100 µM | NCI-H460 > 100 µM | Malme-3M > 100 µM | HOP-62 > 100 µM | UACC-62 > 100 µM | KM12 > 100 µM | HCC 2998 > 100 µM | HOP-92 > 100 µM | SK-MEL-28 > 100 µM | A549 > 100 µM | SK-MEL-5 > 100 µM | OVCAR-8 > 100 µM | M14 > 100 µM | IGROV-1 > 100 µM | UACC-257 > 100 µM

O=C(Nc1cccc(C(F)(F)F)c1)c1cc(Br)cc(Br)c1O [FLUOROSALAN]
inactive: SF-268 4.25 µM | OVCAR-5 4.76 µM | MDA-N 3.69 µM | OVCAR-3 2.24 µM | NCI-H460 3.02 µM | HOP-62 5.22 µM | UACC-62 3.56 µM | KM12 3.28 µM | T47D 3.24 µM | HCC 2998 3.03 µM | HOP-92 2.27 µM | SK-MEL-28 3.38 µM | A549 2.83 µM | SK-MEL-5 1.65 µM | OVCAR-8 3.09 µM | M14 4.94 µM | IGROV-1 4.28 µM | UACC-257 2.52 µM

Reference: ChEMBL document CHEMBL1201862, “PubChem BioAssay data set” (2004)
